How the values were obtained:
Experiment in all cases: CRE-luciferase assay of odorant receptor activation (Dual-Glo, Hana3A cells, RTP1S), dose-response EC50
Format in all cases: cell-based
[1] = system: mouse odorant receptors (ORs); conditions: for log EC50, MOR203-1: receptor MOR203-1; for log EC50, MOR261-1: receptor MOR261-1
Excerpt: (§1) Cloning mouse and human ORs. […] OR open reading frames were amplified from genomic DNA using proofreading KOD DNA polymerase (Toyobo/Novagen) and subcloned into pCI expression vectors (Promega) containing the first 20 residues of human rhodopsin (Rho tag). The sequences of the cloned receptors were verified by sequencing (3100 Genetic Analyzer, ABI Biosystems). Immunocytochemistry and FACS analysis. […] For FACS analysis, phycoerythrin (PE)-conjugated anti-mouse IgG (Jackson Immunologicals) was used. In order to monitor the transfection efficiency, Green Fluorescent Protein (GFP) was co-transfected with the OR. The intensity of receptor cell surface expression was calculated as the ratio of PE and GFP expression. 7-aminoactinomycin D (Calbiochem) was added before flow cytometry to mark dead cells which were excluded from the analysis. The gate and mean of PE positive cells was normalized by GFP values. Luciferase assay. […] Odorant receptor activation leads to an increase in intracellular cAMP; CRE-luciferase (Stratagene) was used to measure this change. […] Hana3A cells were plated on poly-D-lysine-coated 96-well plates (BioCoat; Becton Dickinson). […] For each 96-well plate transfected, 1 μg of CRE-Luc, 1 μg of pRL-SV40, 5 μg of odorant receptor plasmid, and 1 μg of RTP1S was used. Approximately 24 hours post transfection, the medium was replaced with CD293 chemically defined medium (Gibco) and the plate was incubed for 30 min at 37° C. The medium was then replaced with 25 μL of odorant solution diluted in CD293 and the plate was incubated for 4 hrs at 37° C. and 5% CO2. The manufacturer's protocols for measuring luciferase and Renilla luciferase activities was followed. […] All luminescence values were divided by the Renilla Luciferase activity to control for transfection efficiency in a given well. Normalized luciferase activity was calculated using the formula (LN−Lmin)/(Lmax−Lmin), where LN is the luminescence of firefly luciferase in response to the odorant, Lmin is the minimum luciferase value on a plate or set of plates, and Lmax is the maximum luciferase value on a plate or set of plates. The data was analyzed using Microsoft Excel and GraphPad Prism 4. Screening procedure. The entire OR library was stimulated with eight separate odorant mixtures formed from 93 odorants (FIG. 12). […] A comparison between the 93 individual odorants at a 100 μM dose and a no-odor control was performed for all 290 […]. Each comparison was performed in triplicate; statistical significance was assessed by t-test (uncorrected for multiple comparisons). […] A single odorant was used on each plate to avoid cross-contamination, and each OR odorant dose was tested at least three times. The data was fit to a sigmoidal curve. […] Physicochemical descriptors. […] Receptor descriptors. […] Correlations between descriptors and responses. […] All odorants for which there were fewer than 3 responsive receptors were eliminated. For all remaining odorant pairs the Pearson correlation between EC50 vectors and the Euclidean distance between descriptor vectors was calculated. The Pearson correlation between these two sets of distances was then measured. Optimizing descriptors. […] In this method one begins with an empty set of descriptors. Each descriptor is combined with the previous set of descriptors and correlation values are computed for all of these candidate sets of descriptors. To reduce overfitting, the data is randomly divided into ten subsets and correlation values are computed for each leave-one out subset. The final correlation coefficient for each set of descriptors is the average of the correlation coefficients for each subset. The set with the best correlation coefficient then becomes the new set of descriptors and the process is repeated until the correlation coefficient increases by less than 0.004 in three consecutive iterations.

[2] = molecular target: T1, human odorant receptors (ORs) (Homo sapiens, UniProt O76002); conditions: receptor OR2J2; 0 = no response; read-out: log EC50, OR2J2 (converted)
T1 construct: OR open reading frames were amplified from genomic DNA; expressed in transfected cells; host or cells: Hana3A cells, co-transfected with RTP1S, CRE-luciferase and pRL-SV40
T1 sequence (O76002 1-312): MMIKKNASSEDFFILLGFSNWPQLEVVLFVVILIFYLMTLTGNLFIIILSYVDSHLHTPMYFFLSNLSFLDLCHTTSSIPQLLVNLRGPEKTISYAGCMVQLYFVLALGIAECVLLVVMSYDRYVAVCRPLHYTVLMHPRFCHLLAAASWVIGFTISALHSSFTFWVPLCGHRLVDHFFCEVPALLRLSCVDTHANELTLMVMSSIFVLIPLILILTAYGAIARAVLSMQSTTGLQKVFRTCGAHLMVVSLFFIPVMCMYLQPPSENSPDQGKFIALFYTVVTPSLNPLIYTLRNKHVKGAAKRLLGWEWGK
Excerpt: as §1, with “For all remaining odorant pairs the Pearson correlation between EC50 vectors and the Euclidean distance between descriptor vectors was calculated.” left out, “subset.” for “subset. The set with the best correlation coefficient then becomes the new set of descriptors and the process is repeated until the correlation coefficient increases by less than 0.004 in three consecutive iterations.”
(§2) The entire OR library was stimulated with one of 8 odorant mixtures drawn from 93 odorants chosen to represent diverse functional groups, sizes, and structures (Table 3). Each mixture was applied at five different concentrations. […] The 93 odorants were then applied individually at 100 μM to the 290 mixture-responsive ORs.

[3] = molecular target: T2, human odorant receptors (ORs) (Homo sapiens, UniProt Q9Y3N9); conditions: receptor OR2W1; 0 = no response; read-out: log EC50, OR2W1 (converted)
T2 construct: OR open reading frames were amplified from genomic DNA; expressed in transfected cells; host or cells: Hana3A cells, co-transfected with RTP1S, CRE-luciferase and pRL-SV40
T2 sequence (Q9Y3N9 1-320): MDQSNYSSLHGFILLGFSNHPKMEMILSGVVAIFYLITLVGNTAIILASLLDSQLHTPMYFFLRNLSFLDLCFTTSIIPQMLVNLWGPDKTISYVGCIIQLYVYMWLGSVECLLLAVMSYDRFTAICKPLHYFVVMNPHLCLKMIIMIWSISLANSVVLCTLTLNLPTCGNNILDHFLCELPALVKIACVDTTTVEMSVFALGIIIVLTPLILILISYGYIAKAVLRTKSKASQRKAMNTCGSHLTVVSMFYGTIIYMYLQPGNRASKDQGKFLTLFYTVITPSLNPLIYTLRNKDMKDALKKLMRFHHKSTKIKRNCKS
Excerpt: as §1, with “For all remaining odorant pairs the Pearson correlation between EC50 vectors and the Euclidean distance between descriptor vectors was calculated.” left out, “subset.” for “subset. The set with the best correlation coefficient then becomes the new set of descriptors and the process is repeated until the correlation coefficient increases by less than 0.004 in three consecutive iterations.”
as §2

[4] = molecular target: T3, human odorant receptors (ORs) (Homo sapiens, UniProt Q8WZ94); conditions: receptor OR5P3; 0 = no response; read-out: log EC50, OR5P3 (converted)
T3 construct: OR open reading frames were amplified from genomic DNA; expressed in transfected cells; host or cells: Hana3A cells, co-transfected with RTP1S, CRE-luciferase and pRL-SV40
T3 sequence (Q8WZ94 1-311): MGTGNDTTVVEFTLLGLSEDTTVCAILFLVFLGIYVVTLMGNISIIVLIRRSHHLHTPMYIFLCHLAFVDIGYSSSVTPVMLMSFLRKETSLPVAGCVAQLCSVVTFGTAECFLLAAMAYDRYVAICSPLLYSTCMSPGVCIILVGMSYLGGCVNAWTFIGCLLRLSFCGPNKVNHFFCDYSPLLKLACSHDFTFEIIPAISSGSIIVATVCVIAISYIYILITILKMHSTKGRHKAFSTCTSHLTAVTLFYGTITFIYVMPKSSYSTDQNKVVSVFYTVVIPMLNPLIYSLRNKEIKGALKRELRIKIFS
Excerpt: as §1, with “For all remaining odorant pairs the Pearson correlation between EC50 vectors and the Euclidean distance between descriptor vectors was calculated.” left out, “subset.” for “subset. The set with the best correlation coefficient then becomes the new set of descriptors and the process is repeated until the correlation coefficient increases by less than 0.004 in three consecutive iterations.”
as §2

[5] = molecular target: T4, human odorant receptors (ORs) (Homo sapiens, UniProt Q8NGJ5); conditions: receptor OR51L1; read-out: log EC50 of odorant at OR51L1 (0 = no response) (converted)
T4 construct: OR open reading frames were amplified from genomic DNA; expressed in transfected cells; host or cells: Hana3A cells, co-transfected with RTP1S, CRE-luciferase and pRL-SV40
T4 sequence (Q8NGJ5 1-315): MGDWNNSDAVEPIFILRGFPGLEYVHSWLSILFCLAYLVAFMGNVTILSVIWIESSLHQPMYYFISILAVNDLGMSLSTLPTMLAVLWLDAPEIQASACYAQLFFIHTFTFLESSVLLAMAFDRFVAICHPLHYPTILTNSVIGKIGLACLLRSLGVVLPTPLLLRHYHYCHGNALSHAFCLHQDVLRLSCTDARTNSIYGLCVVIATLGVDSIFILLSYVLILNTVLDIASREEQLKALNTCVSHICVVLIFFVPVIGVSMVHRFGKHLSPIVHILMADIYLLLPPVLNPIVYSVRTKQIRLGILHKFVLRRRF
Excerpt: as §1, with “For all remaining odorant pairs the Pearson correlation between EC50 vectors and the Euclidean distance between descriptor vectors was calculated.” left out, “subset.” for “subset. The set with the best correlation coefficient then becomes the new set of descriptors and the process is repeated until the correlation coefficient increases by less than 0.004 in three consecutive iterations.”
as §2

[6] = molecular target: T5, human odorant receptors (ORs) (Homo sapiens, UniProt Q8TCB6); conditions: receptor OR51E1
T5 construct: OR open reading frames were amplified from genomic DNA; expressed in transfected cells; host or cells: Hana3A cells, co-transfected with RTP1S, CRE-luciferase and pRL-SV40
T5 sequence (Q8TCB6 1-318): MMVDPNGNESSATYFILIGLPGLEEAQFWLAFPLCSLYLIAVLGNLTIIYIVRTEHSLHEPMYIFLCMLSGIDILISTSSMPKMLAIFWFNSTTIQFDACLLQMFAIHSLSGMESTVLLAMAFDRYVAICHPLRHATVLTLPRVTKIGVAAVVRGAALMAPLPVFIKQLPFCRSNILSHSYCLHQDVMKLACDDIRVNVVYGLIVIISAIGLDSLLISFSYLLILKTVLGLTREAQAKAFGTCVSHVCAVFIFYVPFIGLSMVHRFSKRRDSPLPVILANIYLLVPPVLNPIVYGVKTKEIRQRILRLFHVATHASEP
Excerpt: as §1, with “For all remaining odorant pairs the Pearson correlation between EC50 vectors and the Euclidean distance between descriptor vectors was calculated.” left out, “subset.” for “subset. The set with the best correlation coefficient then becomes the new set of descriptors and the process is repeated until the correlation coefficient increases by less than 0.004 in three consecutive iterations.”
as §2

Row | SMILES | log EC50, MOR203-1 ([1]; 0 = no response) | log EC50, MOR261-1 ([1]; 0 = no response) | EC50 [2] [µM] | EC50 [3] [µM] | other results
1 | CCCCCCCCO [1-Octanol] | −3.563 | −5.192 | 69.2 | 7.45 | log EC50, MOR268-1 ([1]; receptor MOR268-1, 0 = no response): −3.63
2 | CCCCCCCCCO [1-Nononol] | −4.456 | −4.914 | 69.2 | 23.4 | 
3 | CCCCCCO [1-Hexanol] |  |  |  | 14.1 | log EC50, MOR41-1 ([1]; receptor MOR41-1, 0 = no response): −4.064; EC50 [4]: 175 µM
4 | CCCCCC(=O)O [Hexanoic acid] |  |  |  |  | log EC50 of odorant at MOR1-1 (0 = no response) ([1]; receptor MOR1-1): −4.625; EC50 [5]: 147 µM
5 | CCCCOC(=O)C(C)OC(=O)CCC (stereo not drawn) [Butyl butyryl actate] |  |  |  |  | log EC50 (Table 4 value), OR51E1 [6]: −3.473

— patent publication US20100248390A1, “COMPOSITIONS AND METHODS FOR IDENTIFYING LIGANDS OF ODORANT RECEPTORS” (DUKE UNIVERSITY, priority 2009, published 2010)
